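48-hour exposure; five concentrations; linearly interpolated endpoints. GI50: concentration for 50% inhibition of growth.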 Activity calls are given as the source filed them. Cut-off read from the data, not from the text of the source: active = GI50 up to about 1.1 µM and inactive = higher.
Key:
Test in all cases: NCI anticancer screen, dose series, 48 h
786-0 = system: 786-0
A498 = system: A498
A549 = system: A549
ACHN = system: ACHN
BT-549 = system: BT-549
CAKI-1 = system: CAKI-1
CCRF-CEM = system: CCRF-CEM
COLO 205 = system: COLO 205
DU-145 = system: DU-145
EKVX = system: EKVX
HCT-116 = system: HCT-116
HCT-15 = system: HCT-15
HOP-62 = system: HOP-62
HOP-92 = system: HOP-92
HT-29 = system: HT-29
Hs-578T = system: Hs-578T
IGROV-1 = system: IGROV-1
K562 = system: K562
KM12 = system: KM12
LOX IMVI = system: LOX IMVI
M14 = system: M14
MCF7 = system: MCF7
MDA-MB-231 = system: MDA-MB-231
MDA-MB-435 = system: MDA-MB-435
MOLT-4 = system: MOLT-4
Malme-3M = system: Malme-3M
NCI-H226 = system: NCI-H226
NCI-H23 = system: NCI-H23
NCI-H460 = system: NCI-H460
NCI-H522 = system: NCI-H522
NCI/ADR-RES = system: NCI/ADR-RES
OVCAR-3 = system: OVCAR-3
OVCAR-4 = system: OVCAR-4
OVCAR-5 = system: OVCAR-5
OVCAR-8 = system: OVCAR-8
PC-3 = system: PC-3
RPMI-8226 = system: RPMI-8226
RXF 393 = system: RXF 393
SF-268 = system: SF-268
SF-295 = system: SF-295
SF-539 = system: SF-539
SK-MEL-28 = system: SK-MEL-28
SK-MEL-2 = system: SK-MEL-2
SK-MEL-5 = system: SK-MEL-5
SK-OV-3 = system: SK-OV-3
SN12C = system: SN12C
SNB-19 = system: SNB-19
SNB-75 = system: SNB-75
SR = system: SR
SW-620 = system: SW-620
T47D = system: T47D
TK-10 = system: TK-10
U-251 = system: U-251
UACC-257 = system: UACC-257
UACC-62 = system: UACC-62
UO-31 = system: UO-31
HCC 2998 = system: HCC 2998
HL-60 = system: HL-60

For `Cc1ccc(NC(=O)COc2ccc(Cl)cc2)cc1Cl`, the GI50 (786-0) was 44.5 µM (inactive), the GI50 (A498) was 45.3 µM (inactive) and the GI50 (A549) was 74.1 µM (inactive). The GI50 (ACHN) was 42.7 µM (inactive), the GI50 (BT-549) was 70.3 µM (inactive) and the GI50 (CAKI-1) was 18.7 µM (inactive). The GI50 (CCRF-CEM) was 0.278 µM (active), the GI50 (COLO 205) was > 100 µM (inactive) and the GI50 (DU-145) was > 100 µM (inactive). The GI50 (EKVX) was 46.3 µM (inactive), the GI50 (HCT-116) was 14.4 µM (inactive) and the GI50 (HCT-15) was over 100 µM. For the same molecule, the GI50 (HOP-62) was 20 µM (inactive), the GI50 (HOP-92) was 51.8 µM (inactive) and the GI50 (HT-29) was > 100 µM (inactive). The GI50 (Hs-578T) was 14.2 µM (inactive), the GI50 (IGROV-1) was 36.5 µM (inactive) and the GI50 (K562) was > 100 µM (inactive). For the same molecule, the GI50 (KM12) was > 100 µM (inactive), the GI50 (LOX IMVI) was 82 µM (inactive) and the GI50 (M14) was 47.1 µM (inactive). For the same molecule, the GI50 (MCF7) was > 100 µM (inactive), the GI50 (MDA-MB-231) was 15.2 µM (inactive) and the GI50 (MDA-MB-435) was > 100 µM (inactive). The GI50 (MOLT-4) was > 100 µM (inactive), the GI50 (Malme-3M) was 30.5 µM (inactive) and the GI50 (NCI-H226) was 31 µM (inactive). For the same molecule, the GI50 (NCI-H23) was 19.7 µM (inactive), the GI50 (NCI-H460) was > 100 µM (inactive) and the GI50 (NCI-H522) was 75.7 µM (inactive). The GI50 (NCI/ADR-RES) was 78.2 µM (inactive), the GI50 (OVCAR-3) was > 100 µM (inactive) and the GI50 (OVCAR-4) was > 100 µM (inactive). The GI50 (OVCAR-5) was 68.1 µM (inactive), the GI50 (OVCAR-8) was 28.9 µM (inactive) and the GI50 (PC-3) was > 100 µM (inactive). The GI50 (RPMI-8226) was 87.5 µM (inactive), the GI50 (RXF 393) was 24.7 µM (inactive) and the GI50 (SF-268) was 53.1 µM (inactive). For the same molecule, the GI50 (SF-295) was 50.5 µM (inactive), the GI50 (SF-539) was 83.6 µM (inactive) and the GI50 (SK-MEL-28) was > 100 µM (inactive). The GI50 (SK-MEL-2) was > 100 µM (inactive), the GI50 (SK-MEL-5) was > 100 µM (inactive) and the GI50 (SK-OV-3) was 52.4 µM (inactive). The GI50 (SN12C) was 38.2 µM (inactive), the GI50 (SNB-19) was 74.1 µM (inactive) and the GI50 (SNB-75) was 59 µM (inactive). For the same molecule, the GI50 (SR) was 10.1 µM (inactive), the GI50 (SW-620) was > 100 µM (inactive) and the GI50 (T47D) was > 100 µM (inactive). The GI50 (TK-10) was 27.3 µM (inactive), the GI50 (U-251) was 27.4 µM (inactive) and the GI50 (UACC-257) was 83.4 µM (inactive). The GI50 (UACC-62) was 53.3 µM (inactive) and the GI50 (UO-31) was 30.3 µM (inactive).

With `N#Cc1c(-c2ccc(Cl)cc2)[nH]c(=O)n(C2OC(CO)C(O)C(O)C2O)c1=O` (stereo unspecified) the GI50 (786-0) was > 100 µM (inactive), the GI50 (A498) was 21.1 µM (inactive) and the GI50 (A549) was > 100 µM (inactive). For the same molecule, the GI50 (ACHN) was > 100 µM (inactive), the GI50 (BT-549) was > 100 µM (inactive) and the GI50 (CAKI-1) was > 100 µM (inactive). The GI50 (CCRF-CEM) was > 100 µM (inactive), the GI50 (COLO 205) was > 100 µM (inactive) and the GI50 (DU-145) was > 100 µM (inactive). For the same molecule, the GI50 (EKVX) was 54.6 µM (inactive), the GI50 (HCC 2998) was > 100 µM (inactive) and the GI50 (HCT-116) was > 100 µM (inactive). For the same molecule, the GI50 (HCT-15) was over 100 µM, the GI50 (HL-60) was > 100 µM (inactive) and the GI50 (HOP-62) was > 100 µM (inactive). The GI50 (HOP-92) was 26.2 µM (inactive), the GI50 (HT-29) was > 100 µM (inactive) and the GI50 (Hs-578T) was > 100 µM (inactive). The GI50 (IGROV-1) was 22.6 µM (inactive), the GI50 (K562) was > 100 µM (inactive) and the GI50 (KM12) was > 100 µM (inactive). The GI50 (M14) was > 100 µM (inactive), the GI50 (MCF7) was > 100 µM (inactive) and the GI50 (MDA-MB-231) was > 100 µM (inactive). The GI50 (MDA-MB-435) was > 100 µM (inactive), the GI50 (MOLT-4) was > 100 µM (inactive) and the GI50 (NCI-H226) was 46 µM (inactive). For the same molecule, the GI50 (NCI-H23) was > 100 µM (inactive), the GI50 (NCI-H460) was > 100 µM (inactive) and the GI50 (NCI-H522) was > 100 µM (inactive). For the same molecule, the GI50 (NCI/ADR-RES) was > 100 µM (inactive), the GI50 (OVCAR-3) was > 100 µM (inactive) and the GI50 (OVCAR-4) was > 100 µM (inactive). The GI50 (OVCAR-5) was > 100 µM (inactive), the GI50 (OVCAR-8) was > 100 µM (inactive) and the GI50 (PC-3) was > 100 µM (inactive). The GI50 (RPMI-8226) was > 100 µM (inactive), the GI50 (RXF 393) was > 100 µM (inactive) and the GI50 (SF-268) was > 100 µM (inactive). For the same molecule, the GI50 (SF-295) was > 100 µM (inactive), the GI50 (SF-539) was > 100 µM (inactive) and the GI50 (SK-MEL-28) was > 100 µM (inactive). The GI50 (SK-MEL-2) was > 100 µM (inactive), the GI50 (SK-MEL-5) was > 100 µM (inactive) and the GI50 (SK-OV-3) was > 100 µM (inactive). For the same molecule, the GI50 (SN12C) was > 100 µM (inactive), the GI50 (SNB-19) was > 100 µM (inactive) and the GI50 (SNB-75) was 43.2 µM (inactive). The GI50 (SW-620) was > 100 µM (inactive), the GI50 (T47D) was 74 µM (inactive) and the GI50 (TK-10) was > 100 µM (inactive). For the same molecule, the GI50 (U-251) was > 100 µM (inactive), the GI50 (UACC-257) was > 100 µM (inactive) and the GI50 (UACC-62) was > 100 µM (inactive). The GI50 (UO-31) was > 100 µM (inactive).

— ChEMBL document CHEMBL1201862, “PubChem BioAssay data set” (2004)
